Test results as given in paper PMC10893631, “Receptor-based pharmacophore modeling, molecular docking, synthesis and biological evaluation of novel VEGFR-2, FGFR-1, and BRAF multi-kinase inhibitors” (BMC Chemistry, 2024).
Like-named read-outs stand apart in the source and are kept apart here.

Columns and labels:
VEGFR-2 = target: T1, VEGFR-2 (Homo sapiens, UniProt P35968); assay: VEGFR-2 kinase assay kit (BPS), Kinase-Glo Max luminescence; assay type: biochemical; conditions: VEGFR-2, single dose 10 µM, duplicate, mean ± SD
T1 construct: purchased BPS Biosciences 40325
T1 sequence (P35968 20-1356): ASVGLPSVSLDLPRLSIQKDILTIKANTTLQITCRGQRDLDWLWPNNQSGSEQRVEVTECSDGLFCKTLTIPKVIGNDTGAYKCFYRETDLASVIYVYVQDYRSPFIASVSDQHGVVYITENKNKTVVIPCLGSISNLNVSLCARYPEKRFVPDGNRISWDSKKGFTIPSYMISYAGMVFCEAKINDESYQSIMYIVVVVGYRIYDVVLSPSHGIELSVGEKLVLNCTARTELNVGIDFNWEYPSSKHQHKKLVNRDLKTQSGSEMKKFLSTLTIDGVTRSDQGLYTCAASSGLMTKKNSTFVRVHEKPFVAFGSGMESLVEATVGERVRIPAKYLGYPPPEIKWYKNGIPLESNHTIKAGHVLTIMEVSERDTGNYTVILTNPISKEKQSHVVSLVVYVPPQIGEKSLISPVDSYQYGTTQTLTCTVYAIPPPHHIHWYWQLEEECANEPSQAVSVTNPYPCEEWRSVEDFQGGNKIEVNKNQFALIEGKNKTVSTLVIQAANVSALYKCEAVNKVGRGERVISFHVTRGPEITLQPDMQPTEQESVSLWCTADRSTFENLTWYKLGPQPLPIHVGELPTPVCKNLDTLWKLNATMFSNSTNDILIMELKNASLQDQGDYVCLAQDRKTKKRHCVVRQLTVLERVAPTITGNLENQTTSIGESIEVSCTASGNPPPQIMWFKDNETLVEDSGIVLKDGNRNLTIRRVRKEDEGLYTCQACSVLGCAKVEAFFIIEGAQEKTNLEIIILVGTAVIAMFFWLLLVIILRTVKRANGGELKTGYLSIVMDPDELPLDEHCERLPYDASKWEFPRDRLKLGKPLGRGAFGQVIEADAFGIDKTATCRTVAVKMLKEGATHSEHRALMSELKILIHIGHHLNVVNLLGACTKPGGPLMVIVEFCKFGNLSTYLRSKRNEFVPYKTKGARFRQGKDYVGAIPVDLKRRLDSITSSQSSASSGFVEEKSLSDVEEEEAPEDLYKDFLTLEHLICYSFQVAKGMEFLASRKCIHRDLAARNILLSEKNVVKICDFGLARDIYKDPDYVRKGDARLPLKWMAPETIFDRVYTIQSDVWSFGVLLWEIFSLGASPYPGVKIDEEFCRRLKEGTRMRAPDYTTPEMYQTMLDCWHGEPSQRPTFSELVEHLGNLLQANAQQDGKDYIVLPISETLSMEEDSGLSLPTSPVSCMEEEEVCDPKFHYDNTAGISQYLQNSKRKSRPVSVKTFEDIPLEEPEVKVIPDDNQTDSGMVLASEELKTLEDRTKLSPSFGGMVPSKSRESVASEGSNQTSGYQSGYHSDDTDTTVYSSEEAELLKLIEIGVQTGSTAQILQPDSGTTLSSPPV
Protocol: 2. Biochemical kinase assay procedure
The inhibitory activity against different kinases was determined using kinase kits […]
from BPS Biosciences and kinase-Glo Max luminescence kinase assay kit (Promega).
The assay was carried out according to the protocol provided by the manufacturer. A stock solution of the synthesized derivatives in 100% DMSO was prepared. Subsequently, the compounds were diluted to 10% DMSO.
A master mixture was prepared according to the number of wells. For VEGFR-2 and FGFR-1 biochemical assays each well include 6 μl of 5x Kinase Buffer 1 + 1 μl of 500 μM ATP + 1 μl of PTK Substrate (Poly-Glu,Tyr 4:1) (10 mg/ml) + 17 μl of distilled water. For BRAF assay each well include 6 μl of 5x Kinase Buffer 1 + 1 μl of ATP (500 μM) + 10 μl of 5X Raf substrate + 8 μl of distilled water. 1x Kinase buffer 1 was prepared by mixing 600 μl of 5x Kinase Buffer 1 with 2400 μl water to give 3 mL. Kinases were thawed on ice and were diluted with 1x Kinase Buffer 1.
To start the biochemical reaction, 25 µL of the master mixture was added to each well in 96 well plate. 5 µL of 10% DMSO was added to positive control wells and blank wells. 5 µL of diluted inhibitor was added to each well labelled with the test inhibitor so that the final concentration of DMSO is 1% in all reactions. Then 20 µL of (1 ng / μl) in case of VEGFR-2 and FGFR-1 or (2.5 ng/μl) in case of BRAF in 1x kinase buffer was added to positive control wells and wells labelled with the inhibitor, while 20 µL 1x kinase buffer 1 was added to the […]
The plate was incubated at 30 °C for 45 min. Subsequently, 50 μl of Kinase-Glo Max luminescence reagent was added to each well and the plate was covered with aluminum foil and incubated at room temperature 15 min. Finally, the luminescence was recorded using multimode microplate reader. Kinase activity assays were performed in duplicate at each […]
The luminescence data were analyzed as follows. The difference between luminescence intensities in the absence of kinase (Lut) and in the presence of kinase (Luc) was defined as 100 % activity (Lut – Luc). Using luminescence signal (Lu) in the presence of the compound, % activity was calculated as: % activity = {(Lut - Lu)/(Lut - Luc)}×100%. The […]
concentration of the test compounds required to reduce the kinase activity by 50% was determined from dose-response curves and recorded as their IC50. […]

[1] = tested on: NCI panel of 60 tumor cell lines; assay: NCI SRB growth inhibition, whole panel mean (single dose 10 µM / five-dose); assay type: cell-based, human; conditions: Homo sapiens
Protocol: (§1) Screening of cytotoxic activity against a panel of sixty human tumor cell lines The selected compounds by NCI were evaluated for their anticancer activity in a two- stage process. […] Then, the output from the single dose screen is reported as a mean graph. […] Assay protocol. […] For a typical screening experiment, cells are inoculated into 96 well microtiter plates in 100 µL at plating densities ranging from 5000 to 40,000 cells/well depending on the doubling time of individual cell lines. […] After 24 h, two plates of each cell line are fixed in situ with TCA, to represent a measurement of the cell population for each cell line at the time of drug addition (Tz). The experimental drugs are solubilized in dimethyl sulfoxide at 400-fold the desired final maximum test concentration and stored frozen prior to use. At the time of drug addition, an aliquot of frozen concentrate is thawed and diluted to twice the desired final maximum test concentration with complete medium containing 50 µg/mL gentamicin. Additional four, 10-fold or ½ log serial dilutions are made to provide a total of five drug concentrations plus control. Aliquots of 100 mL of these different drug dilutions are added to the appropriate microtiter wells already containing […] of medium, resulting in the required final drug concentrations. […] For adherent cells, the assay is terminated by the addition of cold TCA. […] The supernatant is discarded, and the plates are washed five times with tap water and air dried. Sulforhodamine B (SRB) solution ([…]) at 0.4% (w/v) in 1% acetic acid is added to each well, and plates are incubated for 10 min at room temperature. After staining, unbound dye is removed by washing five times with 1% acetic acid and the plates are air dried. […] Using the seven absorbance measurements [time zero, (Tz), control growth, (C), and test growth in the presence of drug at the five concentration levels (Ti)], the percentage growth is calculated at each of the drug concentrations levels. Percentage growth inhibition is calculated as: [(Ti Tz)/(C–Tz)] x 100 for concentrations for which Ti>/=Tz and [(Ti-Tz)/Tz] x 100 for concentrations for which Ti < Tz. Three dose response parameters are calculated for each experimental agent. […] The drug concentration resulting in total growth inhibition (TGI) is calculated from Ti = Tz. […] Values are calculated for each of these three parameters if the level of activity is reached; however, if the effect is not reached or is exceeded, the value for that parameter is expressed as greater or less than the maximum or minimum concentration tested.

786–0 = assay: NCI SRB growth inhibition (single dose 10 µM / five-dose); assay type: cell-based, human; conditions: Homo sapiens; 786–0 (Renal cancer), 10 µM; read-out: GI%
Protocol: as §1

HL-60(TB) = assay: as above; assay type: cell-based, human; conditions: Homo sapiens; for inhibition at 10 µM: HL-60(TB) (Leukemia), read-out: GI%
Protocol: as §1

HOP-92 = assay: as above; assay type: cell-based, human; conditions: Homo sapiens; for inhibition at 10 µM: HOP-92 (Non-small cell lung cancer), read-out: GI%
Protocol: as §1

LOX IMVI = assay: as above; assay type: cell-based, human; conditions: Homo sapiens; for inhibition at 10 µM: LOX IMVI (Melanoma), read-out: GI%
Protocol: as §1

NCI-H23 = assay: as above; assay type: cell-based, human; conditions: Homo sapiens; for inhibition at 10 µM: NCI-H23 (Non-small cell lung cancer), read-out: GI%
Protocol: as §1

NCI-H322M = assay: as above; assay type: cell-based, human; conditions: Homo sapiens; for inhibition at 10 µM: NCI-H322M (Non-small cell lung cancer), read-out: GI%
Protocol: as §1

NCI/ADR-RES = assay: as above; assay type: cell-based, human; conditions: Homo sapiens; for inhibition at 10 µM: NCI/ADR-RES (Ovarian cancer), read-out: GI%
Protocol: as §1

SF-539 = assay: as above; assay type: cell-based, human; conditions: Homo sapiens; for inhibition at 10 µM: SF-539 (CNS cancer), read-out: GI%
Protocol: as §1

UACC-257 = assay: as above; assay type: cell-based, human; conditions: Homo sapiens; for inhibition at 10 µM: UACC-257 (Melanoma), read-out: GI%
Protocol: as §1

UACC-62 = assay: as above; assay type: cell-based, human; conditions: Homo sapiens; for inhibition at 10 µM: UACC-62 (Melanoma), read-out: GI%
Protocol: as §1

[2] = mean over NCI 60 cell lines, > 100% = lethal effect, read-out: mean growth inhibition % (GI%)
[3] = mean over NCI panel of 60 tumor cell lines, read-out: Mean growth inhibition %

Row | SMILES | inhibition at 10 µM (VEGFR-2) | inhibition at 10 µM [1, 2] | inhibition at 10 µM [1, 3] | inhibition at 10 µM (786–0) | inhibition at 10 µM (HL-60(TB)) | inhibition at 10 µM (HOP-92) | inhibition at 10 µM (LOX IMVI) | inhibition at 10 µM (NCI-H23) | inhibition at 10 µM (NCI-H322M) | inhibition at 10 µM (NCI/ADR-RES) | inhibition at 10 µM (SF-539) | inhibition at 10 µM (UACC-257) | inhibition at 10 µM (UACC-62) | also measured
1 | COc1ccc(C=NNC(=O)c2ccc3[nH]c(-c4ccccc4)nc3c2)cc1O [8e, N'-(3-Hydroxy-4-methoxybenzylidene)-2-phenyl-1H-benzo[d]imidazole-5-carbohydrazide] | 36.4 ± 1.91% | 16.8% | 16.8% | 16.6% | 24.7% | 6.3% | < 5% | < 5% | < 5% | < 5% | 32.2% | 13.8% | 18.7% | –
2 | COc1ccc(OC)c(C=NNC(=O)c2ccc3[nH]c(-c4ccccc4)nc3c2)c1 [8f, N'-(2,5-Dimethoxybenzylidene)-2-phenyl-1H-benzo[d]imidazole-5-carbohydrazide] | 58.3 ± 2.98% | 33.7% | 33.7% | 18.6% | 36.3% | 7.1% | 62.5% | 46.7% | 12.3% | 24.5% | 36.9% | < 5% | 35.5% | –
3 | COc1cc(C=NNC(=O)c2ccc3[nH]c(-c4ccccc4)nc3c2)cc(OC)c1OC [8g, 2-Phenyl-N'-(3,4,5-trimethoxybenzylidene)-1H-benzo[d]imidazole-5-carbohydrazide] | 47.9 ± 3.53% | 36% | 36% | 27.8% | 17.1% | < 5% | 56.5% | 49.4% | 15.7% | < 5% | 49.8% | 54.3% | 70.4% | –
4 | COc1ccc(-c2nc3cc(C(=O)NN=Cc4ccccc4O)ccc3[nH]2)cc1 [8h, N'-(2-Hydroxybenzylidene)-2-(4-methoxyphenyl)-1H-benzo[d]imidazole-5-carbohydrazide] | 62.9 ± 3.89% | > 100% | > 100% | > 100% | 82.9% | > 100% | 98.7% | 94.6% | 96.7% | 63.2% | > 100% | 85% | > 100% | GI50 ([1]; mean over NCI cancer cell lines, five-dose): 2.98 µM; GI50 (HL-60(TB); HL-60(TB), Leukemia, five-dose): 2.09 µM; GI50 (HOP-92; HOP-92, Non-small cell lung cancer, five-dose): 2.83 µM; GI50 (LOX IMVI; LOX IMVI, Melanoma, five-dose): 2.23 µM; GI50 (NCI-H23; NCI-H23, Non-small cell lung cancer, five-dose): 2.06 µM; GI50 (NCI-H322M; NCI-H322M, Non-small cell lung cancer, five-dose): 4.23 µM; GI50 (NCI/ADR-RES; NCI/ADR-RES, Ovarian cancer, five-dose): 6.74 µM; GI50 (SF-539; SF-539, CNS cancer, five-dose): 2.05 µM; GI50 (UACC-257; UACC-257, Melanoma, five-dose): 6.32 µM; GI50 (UACC-62; UACC-62, Melanoma, five-dose): 2.53 µM
